# Tests used:
# Format in all cases: functional
# Nannizzia gypsea = assay: Antifungal activity against Microsporum gypseum after 7 days by NCCLS protocol based method; conditions: 168 h
# Cryptococcus neoformans [1] = assay: Antifungal activity against Cryptococcus neoformans after 72 hrs by NCCLS protocol based method
# Trichophyton rubrum = assay: Antifungal activity against Trichophyton rubrum after 7 days by NCCLS protocol based method; conditions: 168 h
# Candida tropicalis [2] = assay: Antifungal activity against Candida tropicalis after 24 hrs by NCCLS protocol based method
# Candida albicans [3] = assay: Antifungal activity against Candida albicans after 24 hrs by NCCLS protocol based method
# Candida parapsilosis [4] = assay: Antifungal activity against Candida parapsilosis after 24 hrs by NCCLS protocol based method; conditions: Lodderomyces parapsilosis
# Fonsecaea compacta = assay: Antifungal activity against Fonsecaea compacta after 24 hrs by NCCLS protocol based method
# Candida parapsilosis [5] = assay: Antifungal activity against Candida parapsilosis; conditions: Lodderomyces parapsilosis
# Cryptococcus neoformans [6] = assay: Antifungal activity against Cryptococcus neoformans; conditions: Cryptococcus neoformans
# Candida albicans [7] = assay: Antifungal activity against Candida albicans; conditions: Candida albicans
# Pichia kudriavzevii = assay: Antifungal activity against Candida krusei
# Candida tropicalis [8] = assay: Antifungal activity against Candida tropicalis; conditions: Candida tropicalis
Compound,MIC (Nannizzia gypsea),MIC (Cryptococcus neoformans [1]),MIC (Trichophyton rubrum),MIC (Candida tropicalis [2]),MIC (Candida albicans [3]),MIC80 (Candida parapsilosis [4]),MIC80 (Cryptococcus neoformans [1]),MIC80 (Trichophyton rubrum),MIC80 (Candida tropicalis [2]),MIC80 (Fonsecaea compacta),MIC80 (Candida albicans [3]),further results
Cc1ccc(OCCCCN(C)CC(O)(Cn2cncn2)c2ccc(F)cc2F)cc1 (stereo not drawn),1 ng/mL,1 ng/mL,1 ng/mL,1 ng/mL,1 ng/mL,–,–,–,–,–,–,–
CN(CCCCOc1ccc(Cl)cc1)CC(O)(Cn1cncn1)c1ccc(F)cc1F (stereo not drawn),1 ng/mL,1 ng/mL,1 ng/mL,1 ng/mL,1 ng/mL,–,–,–,–,–,–,–
Cc1cccc(OCCCCN(C)CC(O)(Cn2cncn2)c2ccc(F)cc2F)c1 (stereo not drawn),1 ng/mL,1 ng/mL,1 ng/mL,1 ng/mL,1 ng/mL,–,–,–,–,–,–,–
CN(CCCCOc1cccc([N+](=O)[O-])c1)CC(O)(Cn1cncn1)c1ccc(F)cc1F (stereo not drawn),1 to 16 ng/mL,1 to 16 ng/mL,1 to 16 ng/mL,1 to 16 ng/mL,1 to 16 ng/mL,–,–,–,–,–,–,–
CN(CCCCOc1ccccc1[N+](=O)[O-])CC(O)(Cn1cncn1)c1ccc(F)cc1F (stereo not drawn),1 to 16 ng/mL,1 to 16 ng/mL,1 to 16 ng/mL,1 to 16 ng/mL,1 to 16 ng/mL,–,–,–,–,–,–,–
CN(CCCCOc1ccc([N+](=O)[O-])cc1)CC(O)(Cn1cncn1)c1ccc(F)cc1F (stereo not drawn),1 ng/mL,1 ng/mL,1 ng/mL,1 ng/mL,1 ng/mL,–,–,–,–,–,–,–
O=C(OC1CCN(CC(O)(Cn2cncn2)c2ccc(F)cc2F)CC1)c1cccc([N+](=O)[O-])c1 (stereo not drawn),–,–,–,–,–,0.0039 to 0.0625 µg/mL,0.0039 to 0.0625 µg/mL,0.0039 to 0.0625 µg/mL,0.0039 to 0.0625 µg/mL,0.0039 to 0.0625 µg/mL,0.0039 to 0.0625 µg/mL,–
Cc1ccccc1OCCCN(C)CC(O)(Cn1cncn1)c1ccc(F)cc1F (stereo not drawn),1 to 16 ng/mL,1 to 16 ng/mL,1 to 16 ng/mL,1 to 16 ng/mL,1 to 16 ng/mL,–,–,–,–,–,–,–
CCCCCCc1ccc(C(=O)OC2CCN(CC(O)(Cn3cncn3)c3ccc(F)cc3F)CC2)cc1 (stereo not drawn),–,–,–,–,–,0.0039 to 0.0625 µg/mL,0.0039 to 0.0625 µg/mL,0.0039 to 0.0625 µg/mL,0.0039 to 0.0625 µg/mL,0.0039 to 0.0625 µg/mL,0.0039 to 0.0625 µg/mL,–
CCc1ccc(C(=O)OC2CCN(CC(O)(Cn3cncn3)c3ccc(F)cc3F)CC2)cc1 (stereo not drawn),–,–,–,–,–,0.0039 to 0.0625 µg/mL,0.0039 to 0.0625 µg/mL,0.0039 to 0.0625 µg/mL,0.0039 to 0.0625 µg/mL,0.0039 to 0.0625 µg/mL,0.0039 to 0.0625 µg/mL,–
CC(C)(C)c1ccc(C(=O)OC2CCN(CC(O)(Cn3cncn3)c3ccc(F)cc3F)CC2)cc1 (stereo not drawn),–,–,–,–,–,0.0039 to 0.0625 µg/mL,0.0039 to 0.0625 µg/mL,0.0039 to 0.0625 µg/mL,0.0039 to 0.0625 µg/mL,0.0039 to 0.0625 µg/mL,0.0039 to 0.0625 µg/mL,–
CN(CCCOc1ccc(C(C)(C)C)cc1)CC(O)(Cn1cncn1)c1ccc(F)cc1F (stereo not drawn),1 to 16 ng/mL,1 to 16 ng/mL,1 to 16 ng/mL,1 to 16 ng/mL,1 to 16 ng/mL,–,–,–,–,–,–,–
CN(CCCOc1ccc([N+](=O)[O-])cc1)CC(O)(Cn1cncn1)c1ccc(F)cc1F (stereo not drawn),1 ng/mL,1 ng/mL,1 ng/mL,1 ng/mL,1 ng/mL,–,–,–,–,–,–,–
O=C(OC1CCN(CC(O)(Cn2cncn2)c2ccc(F)cc2F)CC1)c1ccc([N+](=O)[O-])cc1 (stereo not drawn),–,–,–,–,–,0.0039 to 0.0625 µg/mL,0.0039 to 0.0625 µg/mL,0.0039 to 0.0625 µg/mL,0.0039 to 0.0625 µg/mL,0.0039 to 0.0625 µg/mL,0.0039 to 0.0625 µg/mL,–
COc1ccc(OCCCN(C)CC(O)(Cn2cncn2)c2ccc(F)cc2F)cc1 (stereo not drawn),1 to 16 ng/mL,1 to 16 ng/mL,1 to 16 ng/mL,1 to 16 ng/mL,1 to 16 ng/mL,–,–,–,–,–,–,–
COc1ccc(C(=O)OC2CCN(CC(O)(Cn3cncn3)c3ccc(F)cc3F)CC2)cc1 (stereo not drawn),–,–,–,–,–,0.0039 to 0.0625 µg/mL,0.0039 to 0.0625 µg/mL,0.0039 to 0.0625 µg/mL,0.0039 to 0.0625 µg/mL,0.0039 to 0.0625 µg/mL,0.0039 to 0.0625 µg/mL,–
CN(CC(=O)Nc1ccccc1)CC(O)(Cn1cncn1)c1ccc(F)cc1F (stereo not drawn),–,–,–,–,–,–,–,–,–,–,–,MIC80 (Candida parapsilosis [5]): 0.25 to 1 µg/mL; MIC80 (Cryptococcus neoformans [6]): 0.0156 µg/mL; MIC80 (Candida albicans [7]): 0.0156 µg/mL; MIC80 (Pichia kudriavzevii): 0.25 to 1 µg/mL; MIC80 (Candida tropicalis [8]): 0.25 to 1 µg/mL

Compound,MIC (Nannizzia gypsea),MIC (Cryptococcus neoformans [1]),MIC (Trichophyton rubrum),MIC (Candida tropicalis [2]),MIC (Candida albicans [3]),MIC80 (Candida parapsilosis [4]),MIC80 (Cryptococcus neoformans [1]),MIC80 (Trichophyton rubrum),MIC80 (Candida tropicalis [2]),MIC80 (Fonsecaea compacta),MIC80 (Candida albicans [3]),further results
O=C(OC1CCN(CC(O)(Cn2cncn2)c2ccc(F)cc2F)CC1)c1ccccc1[N+](=O)[O-] (stereo not drawn),–,–,–,–,–,0.0039 to 0.0625 µg/mL,0.0039 to 0.0625 µg/mL,0.0039 to 0.0625 µg/mL,0.0039 to 0.0625 µg/mL,0.0039 to 0.0625 µg/mL,0.0039 to 0.0625 µg/mL,–
CN(CCCOc1ccc(F)cc1)CC(O)(Cn1cncn1)c1ccc(F)cc1F (stereo not drawn),1 to 16 ng/mL,1 to 16 ng/mL,1 to 16 ng/mL,1 to 16 ng/mL,1 to 16 ng/mL,–,–,–,–,–,–,–
COc1ccc(C(=O)OC2CCN(CC(O)(Cn3cncn3)c3ccc(F)cc3F)CC2)cc1OC (stereo not drawn),–,–,–,–,–,0.0039 to 0.0625 µg/mL,0.0039 to 0.0625 µg/mL,0.0039 to 0.0625 µg/mL,0.0039 to 0.0625 µg/mL,0.0039 to 0.0625 µg/mL,0.0039 to 0.0625 µg/mL,–
CCCc1ccc(C(=O)OC2CCN(CC(O)(Cn3cncn3)c3ccc(F)cc3F)CC2)cc1 (stereo not drawn),–,–,–,–,–,0.0039 to 0.0625 µg/mL,0.0039 to 0.0625 µg/mL,0.0039 to 0.0625 µg/mL,0.0039 to 0.0625 µg/mL,0.0039 to 0.0625 µg/mL,0.0039 to 0.0625 µg/mL,–
COc1ccccc1NC(=O)CN(C)CC(O)(Cn1cncn1)c1ccc(F)cc1F (stereo not drawn),–,–,–,–,–,–,–,–,–,–,–,MIC80 (Candida parapsilosis [5]): 0.25 to 1 µg/mL; MIC80 (Cryptococcus neoformans [6]): 0.0156 µg/mL; MIC80 (Candida albicans [7]): 0.0156 µg/mL; MIC80 (Pichia kudriavzevii): 0.25 to 1 µg/mL; MIC80 (Candida tropicalis [8]): 0.25 to 1 µg/mL
CN(CCCOc1ccccc1Cl)CC(O)(Cn1cncn1)c1ccc(F)cc1F (stereo not drawn),1 to 16 ng/mL,1 to 16 ng/mL,1 to 16 ng/mL,1 to 16 ng/mL,1 to 16 ng/mL,–,–,–,–,–,–,–
Cc1ccc(OCCCN(C)CC(O)(Cn2cncn2)c2ccc(F)cc2F)cc1 (stereo not drawn),1 ng/mL,1 ng/mL,1 ng/mL,1 ng/mL,1 ng/mL,–,–,–,–,–,–,–
CCCCCc1ccc(C(=O)OC2CCN(CC(O)(Cn3cncn3)c3ccc(F)cc3F)CC2)cc1 (stereo not drawn),–,–,–,–,–,0.0039 to 0.0625 µg/mL,0.0039 to 0.0625 µg/mL,0.0039 to 0.0625 µg/mL,0.0039 to 0.0625 µg/mL,0.0039 to 0.0625 µg/mL,0.0039 to 0.0625 µg/mL,–
CN(CC(=O)Nc1ccc(C(C)(C)C)cc1)CC(O)(Cn1cncn1)c1ccc(F)cc1F (stereo not drawn),–,–,–,–,–,–,–,–,–,–,–,MIC80 (Candida parapsilosis [5]): 0.25 to 1 µg/mL; MIC80 (Cryptococcus neoformans [6]): 0.0156 µg/mL; MIC80 (Candida albicans [7]): 0.0156 µg/mL; MIC80 (Pichia kudriavzevii): 0.25 to 1 µg/mL; MIC80 (Candida tropicalis [8]): 0.25 to 1 µg/mL
Cc1cccc(OCCCN(C)CC(O)(Cn2cncn2)c2ccc(F)cc2F)c1 (stereo not drawn),1 ng/mL,1 ng/mL,1 ng/mL,1 ng/mL,1 ng/mL,–,–,–,–,–,–,–
CN(CCCOc1ccccc1[N+](=O)[O-])CC(O)(Cn1cncn1)c1ccc(F)cc1F (stereo not drawn),1 to 16 ng/mL,1 to 16 ng/mL,1 to 16 ng/mL,1 to 16 ng/mL,1 to 16 ng/mL,–,–,–,–,–,–,–
COc1cccc(C(=O)OC2CCN(CC(O)(Cn3cncn3)c3ccc(F)cc3F)CC2)c1 (stereo not drawn),–,–,–,–,–,0.0039 to 0.0625 µg/mL,0.0039 to 0.0625 µg/mL,0.0039 to 0.0625 µg/mL,0.0039 to 0.0625 µg/mL,0.0039 to 0.0625 µg/mL,0.0039 to 0.0625 µg/mL,–
O=C(OC1CCN(CC(O)(Cn2cncn2)c2ccc(F)cc2F)CC1)c1cccc(C(F)(F)F)c1 (stereo not drawn),–,–,–,–,–,0.0039 to 0.0625 µg/mL,0.0039 to 0.0625 µg/mL,0.0039 to 0.0625 µg/mL,0.0039 to 0.0625 µg/mL,0.0039 to 0.0625 µg/mL,0.0039 to 0.0625 µg/mL,–
CCCCc1ccc(C(=O)OC2CCN(CC(O)(Cn3cncn3)c3ccc(F)cc3F)CC2)cc1 (stereo not drawn),–,–,–,–,–,0.0039 to 0.0625 µg/mL,0.0039 to 0.0625 µg/mL,0.0039 to 0.0625 µg/mL,0.0039 to 0.0625 µg/mL,0.0039 to 0.0625 µg/mL,0.0039 to 0.0625 µg/mL,–
CN(CCCOc1cccc([N+](=O)[O-])c1)CC(O)(Cn1cncn1)c1ccc(F)cc1F (stereo not drawn),1 to 16 ng/mL,1 to 16 ng/mL,1 to 16 ng/mL,1 to 16 ng/mL,1 to 16 ng/mL,–,–,–,–,–,–,–
CN(CCCOc1ccc(Cl)cc1)CC(O)(Cn1cncn1)c1ccc(F)cc1F (stereo not drawn),1 ng/mL,1 ng/mL,1 ng/mL,1 ng/mL,1 ng/mL,–,–,–,–,–,–,–
CCC(C)n1ncn(-c2ccc(N3CCN(c4ccc(OCC5COC(Cn6cncn6)(c6ccc(Cl)cc6Cl)O5)cc4)CC3)cc2)c1=O (stereo not drawn) [ITRACONAZOLE],62.5 ng/mL,62.5 ng/mL,62.5 ng/mL,62.5 ng/mL,62.5 ng/mL,–,–,–,–,–,–,–

# — ChEMBL document CHEMBL4396865, “Current advances of triazole alcohols derived from fluconazole: Design, in vitro and in silico studies” (2019)
